Laboratory results published in publication PMC12069901 (Acta Pharmaceutica Sinica. B, 2025).

Key:
PDGF-BB-induced VSMCs [1] = assay: MTT assay, PDGF-BB-induced VSMC proliferation; type: cell-based, rat; conditions: 5 μmol/L for 2 h, then PDGF-BB 25 ng/mL for 24 h
STAT3 [2] = assay: STAT3 dimerization assay and immunoprecipitation; type: cell-based, rat; conditions: PDGF-BB-induced VSMCs; CAB 3–5 μmol/L, AG490 20 μmol/L, stattic 1 μmol/L
SPP1 = assay: Western blot, SPP1 expression in PDGF-BB-induced VSMCs; type: cell-based, rat; conditions: 24 h; CAB 1–5 μmol/L, stattic 1 μmol/L
STAT3 [3] = assay: Western blot, STAT3 phosphorylation in PDGF-BB-induced VSMCs; type: cell-based, rat; conditions: for STAT3 phosphorylation: PDGF-BB 24 h, CAB 1–5 μmol/L, stattic 1 μmol/L
JAK2 = assay: Western blot, JAK2 expression and phosphorylation in PDGF-BB-induced VSMCs; type: cell-based, rat; conditions: for PDGF-BB-induced JAK2 expression: 24 h; for PDGF-BB-induced JAK2 expression / JAK2 phosphorylation: CAB 1–5 μmol/L, stattic 1 μmol/L; for JAK2 phosphorylation: PDGF-BB 24 h
KLF4 = assay: Western blot, KLF4 expression in PDGF-BB-induced VSMCs; type: cell-based, rat; conditions: 24 h; CAB 1–5 μmol/L, stattic 1 μmol/L
[4] = molecular target: STAT3 protein (amino acids 127–688) (Homo sapiens, UniProt P40763); assay: Surface plasmon resonance; type: binding; conditions: immobilized STAT3 (127–688 aa), 25 °C
CIAPIN1 [5] = assay: Western blot, CIAPIN1 expression in PDGF-BB-induced VSMCs; type: cell-based, rat; conditions: 24 h; CAB 1–5 μmol/L, stattic 1 μmol/L
CIAPIN1 [6] = assay: CIAPIN1 nuclear accumulation; type: cell-based, rat; conditions: PDGF-BB-induced VSMCs, 24 h
CDKN1B = assay: Western blot, CDKN1B expression in PDGF-BB-induced VSMCs; type: cell-based, rat; conditions: 24 h, CAB 1–5 μmol/L, stattic 1 μmol/L
PDGF-BB-induced VSMCs [7] = assay: Cell cycle progression analysis; type: cell-based, rat; conditions: CAB-treated versus PDGF-BB-induced VSMCs, 24 h
[8] = test system: Ciapin1 promoter (STAT3-RE1); assay: ChIP-PCR assay, STAT3 binding to Ciapin1 promoter; type: cell-based, rat; conditions: CAB 2 h, then PDGF-BB 6 h
phospho-pRb (p-pRb) = assay: Western blot, phospho-pRb; type: cell-based, rat; conditions: 1–5 μmol/L, 24 h
cyclin D1 = assay: Western blot, cyclin D1 expression; type: cell-based, rat; conditions: 1–5 μmol/L, 24 h
cyclin E1 = assay: Western blot, cyclin E1 expression; type: cell-based, rat; conditions: 1–5 μmol/L, 24 h
AKT = assay: Western blot, AKT phosphorylation in PDGF-BB-induced VSMCs; type: cell-based, rat; conditions: 1–5 μmol/L, PDGF-BB 15 min
rat Ciapin1 promoter = assay: Ciapin1 promoter luciferase assay; type: cell-based; conditions: PDGF-BB 6 h
p38 = assay: Western blot, p38 phosphorylation in PDGF-BB-induced VSMCs; type: cell-based, rat; conditions: 1–5 μmol/L, PDGF-BB 15 min
[9] = type: in vivo, Sprague–Dawley rats
CDK2 = assay: Western blot, CDK2 expression; type: cell-based, rat; conditions: 1–5 μmol/L, 24 h
MMP9 [10] = assay: Gelatin zymography, MMP9 activity; type: cell-based, rat; conditions: 1–5 μmol/L, PDGF-BB 24 h
PDGFR-β = assay: Western blot, PDGFR-β phosphorylation in PDGF-BB-induced VSMCs; type: cell-based, rat; conditions: 1–5 μmol/L, PDGF-BB 15 min
SRC = assay: Western blot, SRC phosphorylation in PDGF-BB-induced VSMCs; type: cell-based, rat; conditions: 5 μmol/L, PDGF-BB 15 min
PCNA = assay: Western blot, PCNA expression; type: cell-based, rat; conditions: 1–5 μmol/L, 24 h
rat carotid arteries = assay: Balloon injury-induced neointima formation in rat carotid artery; type: in vivo, Sprague–Dawley rats; conditions: 20 mg/kg orally daily, 14 days
STAT3 [11] = assay: STAT3 dual-luciferase reporter assay; type: cell-based, rat; conditions: PDGF-BB 6 h
His-STAT3 = assay: His-tag pull-down assay with CAB-conjugated Sepharose 6B; type: binding, Mus musculus
STAT3 [12] = assay: STAT3 nuclear translocation; type: cell-based, rat; conditions: PDGF-BB 15 min
MMP9 [13] = assay: Western blot, MMP9 expression; type: cell-based, rat; conditions: 1–5 μmol/L, 24 h
CDK4 = assay: Western blot, CDK4 expression; type: cell-based, rat; conditions: 1–5 μmol/L, 24 h
VSMCs [14] = assay: Annexin V/PI apoptosis detection assay; type: cell-based, rat; conditions: 5 μmol/L, 26 h, compared with control
ERK1/2 = assay: Western blot, ERK1/2 phosphorylation in PDGF-BB-induced VSMCs; type: cell-based, rat; conditions: 1–5 μmol/L, PDGF-BB 15 min
VSMCs [15] = assay: MTT cytotoxicity assay in VSMCs; type: cell-based, rat; conditions: 5 μmol/L, 26 h
[16] = rat serum, after 2 weeks of CAB administration

STAT3 protein (amino acids 127–688), sequence (P40763 127-688): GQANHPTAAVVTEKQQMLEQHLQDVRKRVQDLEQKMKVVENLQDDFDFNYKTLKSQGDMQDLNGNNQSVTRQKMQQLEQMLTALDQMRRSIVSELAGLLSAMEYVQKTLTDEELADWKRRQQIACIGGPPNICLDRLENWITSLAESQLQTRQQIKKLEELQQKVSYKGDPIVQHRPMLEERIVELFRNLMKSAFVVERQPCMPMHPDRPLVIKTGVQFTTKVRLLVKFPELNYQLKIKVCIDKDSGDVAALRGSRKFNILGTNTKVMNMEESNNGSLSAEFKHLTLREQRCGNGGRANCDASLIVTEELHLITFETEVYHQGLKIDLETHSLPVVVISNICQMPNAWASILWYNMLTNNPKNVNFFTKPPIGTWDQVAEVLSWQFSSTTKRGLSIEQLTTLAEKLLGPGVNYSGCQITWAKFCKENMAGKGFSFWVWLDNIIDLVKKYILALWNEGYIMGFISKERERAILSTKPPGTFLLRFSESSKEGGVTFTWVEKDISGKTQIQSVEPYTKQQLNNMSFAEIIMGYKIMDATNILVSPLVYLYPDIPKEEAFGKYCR

CC(=O)Nc1ccc(C(=O)Oc2ccc3[nH]c4ccccc4c3c2)cc1 [compound 4, 9H-Carbazol-3-yl 4-acetamidobenzoate]
PDGF-BB-stimulated VSMC proliferation (PDGF-BB-induced VSMCs [1]): significantly inhibited

O=[N+]([O-])c1ccc2c(c1)S(=O)(=O)C=C2 [Stattic, reference compound]
STAT3 dimerization (STAT3 [2]): inhibitory effect | PDGF-BB-induced expression of SPP1 (SPP1): inhibited | STAT3 phosphorylation (STAT3 [3]): significantly inhibited | PDGF-BB-induced JAK2 expression (JAK2): significantly inhibited | JAK2 phosphorylation (JAK2): significantly inhibited | PDGF-BB-induced expression of KLF4 (KLF4): inhibited | Ka, association rate constant [4]: 1002 mol⁻¹ L⁻¹ s⁻¹ | Kd, dissociation rate constant [4]: 0.009083 s⁻¹ | Kd ([4]; read-out: KD, equilibrium constant): 9.07 µM | PDGF-BB-induced CIAPIN1 expression (CIAPIN1 [5]): significantly inhibited | CIAPIN1 nuclear accumulation (CIAPIN1 [6]): significantly reduced | CDKN1B expression (CDKN1B): increased

Nc1ccc(C(=O)Oc2ccc3[nH]c4ccccc4c3c2)cc1 [CAB, 9H-Carbazol-3-yl 4-aminobenzoate]
STAT3 dimerization (STAT3 [2]): inhibited | G0/G1 phase proportion (PDGF-BB-induced VSMCs [7]): increase | binding of STAT3 to the Ciapin1 promoter region (protein/DNA binding) [8]: inhibited | PDGF-BB-induced phospho-pRb (p-pRb) (phospho-pRb (p-pRb)): significantly inhibited | PDGF-BB-induced expression of SPP1 (SPP1): decreased | PDGF-BB-induced cyclin D1 expression (cyclin D1): significantly inhibited | PDGF-BB-induced cyclin E1 expression (cyclin E1): significantly inhibited | PDGF-BB-stimulated AKT phosphorylation (AKT): did not affect | PDGF-BB-induced CIAPIN1 luciferase expression (rat Ciapin1 promoter): inhibited | PDGF-BB-stimulated p38 phosphorylation (p38): did not affect | glutamic pyruvic transaminase (GPT/ALT, soluble) level [9, 16]: no alterations | glutamic-oxaloacetic transaminase 1 (GOT1/AST, soluble) level [9, 16]: no alterations | histological morphology of liver, heart, lung, and kidney ([9]; rat, 20 mg/kg orally daily): no significant changes | side effects, such as diarrhea and weight loss ([9]; rat, 20 mg/kg orally daily): did not show any side effects | cell death induction (TUNEL staining) in carotid arteries ([9]; rat, 14 days post-injury, compared with control group): no signs of cell death induction | PDGF-BB-induced CDK2 expression (CDK2): significantly inhibited | MMP9 proteolytic activity (MMP9 [10]): significantly inhibited | PDGF-BB-stimulated PDGFR-β phosphorylation (PDGFR-β): did not affect | PDGF-BB-induced STAT3 tyrosine (Tyr) 705 phosphorylation (STAT3 [3]; 1–5 μmol/L, PDGF-BB 15 min): significantly inhibited | STAT3 serine (Ser) 727 phosphorylation (STAT3 [3]; 1–5 μmol/L, PDGF-BB 15 min): without affecting | STAT3 phosphorylation (STAT3 [3]): attenuated | PDGF-BB-induced JAK2 phosphorylation (JAK2; 5 μmol/L, PDGF-BB 15 min): did not inhibit | PDGF-BB-induced JAK2 expression (JAK2): significantly inhibited | JAK2 phosphorylation (JAK2): attenuated | PDGF-BB-induced SRC phosphorylation (SRC): did not inhibit | PDGF-BB-induced expression of KLF4 (KLF4): decreased | PDGF-BB-induced CIAPIN1 expression (CIAPIN1 [5]): significantly inhibited | PDGF-BB-induced PCNA expression (PCNA): significantly inhibited | CIAPIN1 expression in the neointima region (rat carotid arteries): remarkably decreased | arterial intimal areas (rat carotid arteries; BI + CAB vs BI): lower | circumference of the external elastic lamina (EEL) (rat carotid arteries; BI + CAB vs BI): no differences | media area (rat carotid arteries; BI + CAB vs BI): no differences | balloon injury-induced neointima formation (rat carotid arteries; vs BI group): significantly attenuated | expression of PCNA in carotid arteries (rat carotid arteries; vs BI group): significantly decreased | CIAPIN1 nuclear accumulation (CIAPIN1 [6]): significantly reduced | PDGF-BB-induced STAT3 DNA binding activity (luciferase reporter) (STAT3 [11]): inhibited | binding to STAT3 with mutated SH2 residues (His-STAT3; Ile59, Arg609, and Glu612 mutated, compared to full-length): did not bind to STAT3 strongly | pull-down of full-length STAT3 by CAB-conjugated beads (His-STAT3; full-length His-STAT3): successfully pulled down | pull-down of STAT3 fragments lacking SH2 by CAB-conjugated beads (His-STAT3; ΔSH2): did not pull down | PDGF-BB-increased STAT3 phosphorylation and nuclear translocation (STAT3 [12]): blocked | CDKN1B expression (CDKN1B): dose-dependently restored | PDGF-BB-induced MMP9 expression (MMP9 [13]): significantly inhibited | PDGF-BB-induced CDK4 expression (CDK4): significantly inhibited | cell apoptosis induction (VSMCs [14]): no signs of cell apoptosis induction | PDGF-BB-stimulated ERK1/2 phosphorylation (ERK1/2): did not affect | cytotoxic effects in VSMCs (VSMCs [15]): did not induce cytotoxic effects

O=C(Oc1ccc2[nH]c3ccccc3c2c1)c1ccc(O)cc1 [compound 2, 9H-Carbazol-3-yl 4-hydroxybenzoate]
PDGF-BB-stimulated VSMC proliferation (PDGF-BB-induced VSMCs [1]): significantly inhibited

N#C/C(=C/c1ccc(O)c(O)c1)C(=O)NCc1ccccc1 [AG490]
STAT3 dimerization (STAT3 [2]): inhibitory effect

N=C(N)Nc1ccc(C(=O)Oc2ccc3[nH]c4ccccc4c3c2)cc1 [compound 3, 9H-Carbazol-3-yl 4-guanidinobenzoate]
PDGF-BB-stimulated VSMC proliferation (PDGF-BB-induced VSMCs [1]): significantly inhibited
